Assay results: patent publication US20180200279A1, “INHIBITION OF HSV-1-ASSOCIATED CORNEAL NEOVASCULARIZATION USING INHIBITORS OF CYCLIN-DEPENDENT KINASE 9” (XAVIER UNIVERSITY OF LOUISIANA, priority 2014, published 2018)

Columns and labels:
[1] = test system: HSV-1 17syn+ induced corneal neovascularization; assay: HSV-1 corneal neovascularization mouse model, slit-lamp examination score; assay type: in vivo, Balb/c mice; settings: day 25 post infection; drops 4 times daily for 14 days; 1% TFT, 0.01% flavopiridol, 0.1% DRB; n=10
Procedure: Corneal neovascularization was determined in a masked fashion by slit lamp analysis on days 2, 4, 7, 9, 11, 14, 18, and 25 post-infection (PI) with 5×10^5 PFU/eye of HSV-1 17syn+ using the formula A=(C×0.4×L×n)/2 where C=clock hours of neovascularization; 30° arc is 1 (360° circle with a total of 12); L is the length of the longest neovessel, and A is the area of neovascularization.
All experimental procedures were performed in accordance with the ARVO Resolution for the Use of Animals in Ophthalmic and Vision Research and were approved by the Xavier University Animal Care and Use Committee. Female 20 g Balb/c mice were obtained from Charles River Laboratories. Mice were allowed to equilibrate to their surroundings for 2 weeks and then were anesthetized by intramuscular administration of xylazine (6.6 mg/kg of body weight) and ketamine (100 mg/kg of body weight). The corneas were mildly scarified in a 2×2 cross-hatch pattern and each cornea was inoculated with 5×10^5 PFU of strain HSV 17syn+. […] Average neovascularization/eye was scored using the formula A=(C×0.4×L×π)/2 where C=clock hours of neovascularization; 30° arc is 1 (360° circle with a total of 12); L is the length of the longest neovessel, and A is the area of neovascularization. Students scored (by eye) the animals on the days indicated in a masked fashion using the slit-lamp, and images representative of each group were taken. Clinical scores based on epiphora, inflammation and discharge were calculated where 0=no manifestations, +1=slight manifestations, +2=moderate manifestations, and +3=severe manifestations. […] Ex ovo chick embryo chorioallantoic membrane collagen angiogenesis assays were performed using methods as previously described (Deryugina E I and Quigley J P. Chapter 2. Chick embryo chorioallantoic membrane models to quantify angiogenesis induced by inflammatory and tumor cells or purified effector molecules. Methods Enzymol. 444:21-41. 2008). […]
This was assessed with the dose and frequency that was used in the chemotherapeutic study of HSV-1 corneal neovascularization. […]

[2] = Ocular safety and tolerability of the formulation, mouse eyes; assay type: in vivo; settings: dose and frequency of the HSV-1 corneal neovascularization study
Procedure: This was assessed with the dose and frequency that was used in the chemotherapeutic study of HSV-1 corneal neovascularization. FIG. 1A presents the results of slit-lamp examination (SLE) scores of the corneas of the four treatment groups beginning on post-inoculation day 2 and continuing to 25 days following infection.

[3] = test system: HSV-1 17syn+ ocular infection; assay: HSV-1 ocular infection mouse model, combined clinical score (epiphora, inflammation, discharge); assay type: in vivo, Balb/c mice; settings: 1% TFT, 0.01% flavopiridol, 0.1% DRB drops
Procedure: The combined clinical score was determined based on epiphora (excess tearing), inflammation and discharge. […], +1=slight manifestations, +2=moderate manifestations, and +3=severe manifestations.
(§1) All experimental procedures were performed in accordance with the ARVO Resolution for the Use of Animals in Ophthalmic and Vision Research and were approved by the Xavier University Animal Care and Use Committee. Female 20 g Balb/c mice were obtained from Charles River Laboratories. Mice were allowed to equilibrate to their surroundings for 2 weeks and then were anesthetized by intramuscular administration of xylazine (6.6 mg/kg of body weight) and ketamine (100 mg/kg of body weight). The corneas were mildly scarified in a 2×2 cross-hatch pattern and each cornea was inoculated with 5×10^5 PFU of strain HSV 17syn+. […] DNA was collected by swabbing the eyes with filter paper, and the eyes were examined with a slit-lamp on PI days 2, 4, 7, 9, 11, 14, 18 and 25. Average neovascularization/eye was scored using the formula A=(C×0.4×L×π)/2 where C=clock hours of neovascularization; 30° arc is 1 (360° circle with a total of 12); L is the length of the longest neovessel, and A is the area of neovascularization. Students scored (by eye) the animals on the days indicated in a masked fashion using the slit-lamp, and images representative of each group were taken. Clinical scores based on epiphora, inflammation and discharge were calculated where 0=no manifestations, +1=slight manifestations, +2=moderate manifestations, and +3=severe manifestations. Mice were sacrificed with CO2 on day 25 post-infection, and eyes were harvested, sectioned, stained with hematoxylin and eosin (H&E) for histological analysis based on peripheral neovascularization and leukocytic infiltration where 0=clear eyes, 0.5=either peripheral neovascularization or leukocytic infiltration, and 1=both peripheral neovascularization and leukocytic infiltration. Ex ovo chick embryo chorioallantoic membrane collagen angiogenesis assays were performed using methods as previously described (Deryugina E I and Quigley J P. Chapter 2. Chick embryo chorioallantoic membrane models to quantify angiogenesis induced by inflammatory and tumor cells or purified effector molecules. Methods Enzymol. 444:21-41. 2008). Briefly, fertilized embryos (Charles River Laboratories, Charleston, S.C.) were incubated at 37.5° C. for 3 days, removed from their shell using a Dremel tool and placed into a covered weighing boat for 7 further days of incubation. […] Four collagen onplants were added per egg on at least 3 separate eggs. After three additional days of incubation, images were taken of each plug using a mini-Vid camera (LW Scientific; Lawrenceville, Ga.) and quantified in a masked fashion based on the percentage of grids that were positive for newly formed blood vessels.
FIG. 1B is the combined clinical score for the treatment groups based on epiphora (excess tearing), inflammation, and discharge.

HUVEC = assay: Global transcription, BrU incorporation into RNA by flow cytometry; assay type: cell-based, human; settings: serum-starved, PMA-treated HUVEC
Procedure: Vein endothelial cells (VEC) were activated with phorbol myristate acetate (PMA) and incubated with membrane-permeable 5-bromouridine (BrU) that incorporates into RNA transcribed during the incubation period. A commercially available antibody against 5-bromo-deoxy-uridine was then used to quantify BrU-containing RNA. Cells were analyzed by immunofluorescence staining (not shown) and by flow cytometry for the presence of incorporated BrU to quantify the level of global transcription. […] Additional controls include no antibody and no BrU.
To determine whether FP blocked transcription globally at concentrations at which it reduces angiogenesis in vitro, HUVEC were activated with phorbol myristate acetate (PMA) and incubated with membrane-permeable 5-bromouridine (BrU) that incorporates into RNA transcribed during the incubation period. A commercially available antibody against 5-bromo-deoxy-uridine was then used to quantify BrU-containing RNA. Cells were analyzed by immunofluorescence staining (not shown) and by flow cytometry for the presence of incorporated BrU to quantify the level of global transcription.
Additional controls include no antibody (-Ab) and no BrU (-BrU) (FIG. 5A).

[4] = test system: HSV-1 17syn+ ocular infection; assay: HSV-1 ocular infection mouse model, H&E histology of eyes (leukocytic infiltration, peripheral neovascularization); assay type: in vivo, Balb/c mice; settings: day 25 PI
Procedure: Histological score (0-1) was calculated based on leukocytic infiltration and peripheral neovascularization of hematoxylin & eosin (H&E) stained slides of mouse eyes on day 25 PI.
as §1
To confirm the results in FIGS. 1A and 1B, sections of one cornea from each mouse was sectioned, stained with H&E and analyzed for leukocytic infiltrate and peripheral neovascularization of the cornea.

HSV-1 17syn+ = assay: Real-time PCR of HSV-1 DNA on ocular swabs of infected mice; assay type: in vivo, Balb/c mice; settings: day 25 post infection; 1% TFT, 0.01% flavopiridol, 0.1% DRB drops; n=10
Procedure: SYBR Green semi-quantitative real-time PCR was performed on DNA samples eluted from swabs taken from mouse eyes on days 2, 4, 7, 9, 11, 14, 18 and 25 post infection with 5×10^5 PFU/eye HSV-1 17syn+ using primers specific for HSV-1 DNA polymerase.
All experimental procedures were performed in accordance with the ARVO Resolution for the Use of Animals in Ophthalmic and Vision Research and were approved by the Xavier University Animal Care and Use Committee. Female 20 g Balb/c mice were obtained from Charles River Laboratories. Mice were allowed to equilibrate to their surroundings for 2 weeks and then were anesthetized by intramuscular administration of xylazine (6.6 mg/kg of body weight) and ketamine (100 mg/kg of body weight). The corneas were mildly scarified in a 2×2 cross-hatch pattern and each cornea was inoculated with 5×10^5 PFU of strain HSV 17syn+. […] DNA was collected by swabbing the eyes with filter paper, and the eyes were examined with a slit-lamp on PI days 2, 4, 7, 9, 11, 14, 18 and 25. Average neovascularization/eye was scored using the formula A=(C×0.4×L×π)/2 where C=clock hours of neovascularization; 30° arc is 1 (360° circle with a total of 12); L is the length of the longest neovessel, and A is the area of neovascularization. Students scored (by eye) the animals on the days indicated in a masked fashion using the slit-lamp, and images representative of each group were taken. Clinical scores based on epiphora, inflammation and discharge were calculated where 0=no manifestations, +1=slight manifestations, +2=moderate manifestations, and +3=severe manifestations. […] Ex ovo chick embryo chorioallantoic membrane collagen angiogenesis assays were performed using methods as previously described (Deryugina E I and Quigley J P. Chapter 2. Chick embryo chorioallantoic membrane models to quantify angiogenesis induced by inflammatory and tumor cells or purified effector molecules. Methods Enzymol. 444:21-41. 2008). […]

[5] = test system: chick embryo chorioallantoic membrane; assay: Ex ovo chick chorioallantoic membrane (CAM) collagen onplant angiogenesis assay; assay type: in vivo; settings: 100 nM flavopiridol in bFGF/VEGF-containing collagen plugs; 3 days
From the text: After 3 days, CAMs were photographed, and angiogenesis was quantified by counting the number of grids positive for new blood vessel growth in a blinded manner. Results are expressed as number of grids positive for blood vessels and as percent positive grids.

## CN1CC[C@H](c2c(O)cc(O)c3c(=O)cc(-c4ccccc4Cl)oc23)[C@H](O)C1 [flavopiridol]
[1]
  slit-lamp examination (SLE) score of corneal neovascularization: 0.039±0.176
[2]
  safety and tolerability of the formulation in the eye: safe and well-tolerated
[3]; day 11
  combined clinical score (epiphora, inflammation, discharge; 0 to +3): 0.169±0.248
[3]; day 25
  combined clinical score (epiphora, inflammation, discharge; 0 to +3): 0.039±0.177
HUVEC; 50 nM-300 nM FP
  BrU incorporation into RNA (total cellular transcription): only slightly reduced
HUVEC; 600 nM-1 μM FP
  BrU incorporation into RNA (total cellular transcription): significantly (p<0.05 compared with untreated cells) reduced BrU incorporation into RNA
[4]; H&E sections
  mouse eyes exhibiting corneal neovascularization: 0%
  mouse eyes exhibiting leukocytic infiltration: 0%
[4]; H&E stained corneal sections
  histological score (scale 0-1) for leukocytic infiltrate and peripheral neovascularization: 0.125±0.125
HSV-1 17syn+
  quantitative real-time PCR score (HSV-1 DNA) on ocular swabs: 0.039±0.176
[5]
  angiogenesis: grids positive for newly formed blood vessels: 14.33±2.10
